Measured values published in patent US20260184726A1, “HETEROCYCLIC COMPOUNDS AS KINASE INHIBITORS, COMPOSITIONS, AND METHODS OF USE THEREOF” (JS INNOMED HOLDINGS LTD., priority 2022, published 2026).
Where two headings read alike, the source gives them in different places.

What was measured:
[1] = biological target: BA/F3-KIF5B-RET M918T cells (Homo sapiens, UniProt P07949, M918T, cells depend on it, form not given); assay: Ba/F3 RET-M918T Cell Proliferation Assay (CellTiter-Glo); type: cell-based; details: growth inhibition, 72 hours; Table 3
Protocol: (§1) Compounds disclosed herein were tested for the inhibition of RET by a cancer cell proliferation assay commonly known as CellTiter-Glo assay. In this assay, a complete media was prepared by adding 10% fetal bovine serum to RPMI-1640 medium (Life technology) for RET-driven cancer cells (BAF3-FIF5B-RET, Ba/F3-KIF5B-RET-G810R, Ba/F3-TEL-RET-M918T or Ba/F3-KIF5B-RET-V804M). Individual RET-driven type of cells were added to each of 88 wells of a 96 well plate at a seeding density of 2,000 cells/well/95 μL. The cells were allowed to attach to the plate by incubating at 37° C. for 24 hours. The compound was dissolved in DMSO (SIGMA). A solution of test compound was prepared in complete media by serial dilution to obtain the following concentrations: 20 μM, 6.67 μM, 2.22 μM, 0.74 μM, 0.25 μM, 0.082 μM, 0.027 μM, 0.0091 μM and 0.0030 μM. The test compound solution (5 μL) was added to each of 80 cell-containing wells. The final concentrations of the compound were following: 1 μM, 0.33 μM, 0.11 μM, 0.037 μM, 0.012 μM, 0.0041 μM, 0.0014 μM, 0.00046 μM and 0.00015 μM. The final concentration of DMSO is 0.1%. To the 8 remaining cell-containing wells, only complete media (containing 0.1% DMSO) was added to form a control group in order to measure maximal proliferation. To the remaining 8 empty wells, complete media was added to for a vehicle control group in order to measure background. The plates were incubated at 37° C. for 72 hours. 50 μl of CellTiter-Glo® Reagent was added to each well. Mix contents for 2 minutes on an orbital shaker to induce cell lysis. Incubate at room temperature for 10 minutes to stabilize luminescent signal. Record luminescence on Paradigm. Cell viability (CV %) was calculated relative to vehicle (DMSO) treated control wells. The IC50 was calculated using GraphPad Prism.

[2] = tested on: BAF3 cells; assay: BAF3 Cell Proliferation Assay (CellTiter-Glo, without RET driven, IL-3); type: cell-based; details: Mus musculus; growth inhibition in BAF3 cells, 72 hours, with IL-3; read-out: BAF3 Cellular Activity
How it was run: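 BAF3 cells in RPMI-1640 with 10% FBS and 1 ng/ml IL-3, seeded 2,000/well and settled 24 h at 37 °C, then exposed to compound at final 10 μM down to 0.0015 μM (0.1% DMSO) for 72 h. Viability by CellTiter-Glo luminescence versus DMSO controls; IC50 from curve fit.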

[3] = biological target: T1, human RET kinase (Homo sapiens, UniProt P07949); assay: RET Kinase Assay (mobility shift assay, ATP at Km); type: biochemical; details: 23 μM ATP (Km), read-out: RET Enzymatic Activity
T1 construct: purchased Carna 08-159
Protocol: Compounds were tested by Mobility shift assay with ATP concentration at Km. The assay used human RET kinase (Carna 08-159). Test compounds were prepared and diluted in DMSO in 3-fold serial dilutions to 50× of the final testing concentrations. The compounds were then further diluted to 5× by the kinase reaction buffer (50 mM HEPES pH 7.5, 0.0015% Brij-35). The enzymatic reaction for compound testing was performed in a white 384-well polypropylene plate (Corning 3573) with a total reaction volume of 25 μl containing 7 nM RET, 3 μM peptide substrate FAM-P2 (GL Biochem 112394), and 23 μM ATP (Sigma A7699-1G). The assay started with loading RET diluted in kinase reaction buffer to wells, followed by addition of equal volume of 5× compounds for 15-min incubation at the room temperature for pre-treatment. The enzymatic reaction was initiated by addition of mixture of the substrate and ATP prepared in kinase reaction buffer. After incubation at 28° C. for one hour, 25 μl of stopper buffer (a mixture of 100 mM HEPES pH 7.5 buffer, 0.015% Brij-35, 50 mM EDTA and 0.2% of coating reagent 3 (Cliper Lifesciences)). After 30 minutes of incubation at room temperature, the plate was read in a Caliper. Percent of control was calculated as the percentage of compound-treated vs 2% DMSO vehicle-treated. The dose-response curves were generated and the IC50 values were calculated by nonlinear sigmoid curve fitting using XLFit.

[4] = biological target: T2, Ba/F3-KIF5B-RET-V804M cells (Homo sapiens, UniProt P07949, V804M, cells depend on it); assay: Ba/F3-KIF5B-RET-V804M Cell Proliferation Assay (CellTiter-Glo); type: cell-based; details: growth inhibition, 72 hours; Table 3; read-out: BZ/F3-KIF5B-RET V804M
T2 construct: fused on or other part: P33176 (Kinesin-1 heavy chain)
Protocol: as §1

[5] = biological target: T3, Ba/F3-KIF5B-RET-G810R cells (Homo sapiens, UniProt P07949, G810R, cells depend on it); assay: Ba/F3-KIF5B-RET-G810R Cell Proliferation Assay (CellTiter-Glo); type: cell-based; details: growth inhibition, 72 hours; Table 3
T3 construct: fused on or other part: P33176 (Kinesin-1 heavy chain)
Protocol: as §1

[6] = biological target: T4, human KDR kinase (Homo sapiens, UniProt P35968); assay: KDR Kinase Assay (mobility shift assay, ATP at Km); type: biochemical; details: 92 μM ATP (Km), read-out: KDR Enzymatic Activity
T4 construct: purchased Carna 08-191
Protocol: Compounds were tested by Mobility shift assay with ATP concentration at Km. The assay used human KDR kinase (Carna 08-191). Test compounds were prepared and diluted in DMSO in 3-fold serial dilutions to 50× of the final testing concentrations. The compounds were then further diluted to 5× by the kinase reaction buffer (50 mM HEPES pH 7.5, 0.0015% Brij-35). The enzymatic reaction for compound testing was performed in a white 384-well polypropylene plate (Corning 3573) with a total reaction volume of 25 μl containing 1.2 nM KDR, 3 μM peptide substrate FAM-P22 (GL Biochem 112393), and 92 μM ATP (Sigma A7699-1G). The assay started with loading RET diluted in kinase reaction buffer to wells, followed by addition of equal volume of 5× compounds for 15-min incubation at the room temperature for pre-treatment. The enzymatic reaction was initiated by addition of mixture of the substrate and ATP prepared in kinase reaction buffer. After incubation at 28° C. for one hour, 25 μl of stopper buffer (a mixture of 100 mM HEPES pH 7.5 buffer, 0.015% Brij-35, 50 mM EDTA and 0.2% of coating reagent 3 (Cliper Lifesciences)). After 30 minutes of incubation at room temperature, the plate was read in a Caliper. Percent of control was calculated as the percentage of compound-treated vs 2% DMSO vehicle-treated. The dose-response curves were generated and the IC50s were calculated by nonlinear sigmoid curve fitting using XLFit.

[7] = biological target: T5, BAF3-KIF5B-RET cells (Homo sapiens, UniProt P07949); assay: BAF3-KIF5B-RET Cell Proliferation Assay (CellTiter-Glo); type: cell-based; details: growth inhibition, 72 hours
T5 construct: fused on or other part: P33176 (Kinesin-1 heavy chain)
How it was run: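 Ba/F3 cells driven by KIF5B-RET (wild-type, V804M or G810R) or TEL-RET-M918T, 2,000 per well in RPMI/10% FBS, attached 24 h. Treated 72 h at 37° C with compound from 0.00015 to 1 μM final, 0.1% DMSO. CellTiter-Glo luminescence relative to DMSO wells gave IC50.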

T5 sequence (P07949 whole entry, change not shown, the tested form may be a part): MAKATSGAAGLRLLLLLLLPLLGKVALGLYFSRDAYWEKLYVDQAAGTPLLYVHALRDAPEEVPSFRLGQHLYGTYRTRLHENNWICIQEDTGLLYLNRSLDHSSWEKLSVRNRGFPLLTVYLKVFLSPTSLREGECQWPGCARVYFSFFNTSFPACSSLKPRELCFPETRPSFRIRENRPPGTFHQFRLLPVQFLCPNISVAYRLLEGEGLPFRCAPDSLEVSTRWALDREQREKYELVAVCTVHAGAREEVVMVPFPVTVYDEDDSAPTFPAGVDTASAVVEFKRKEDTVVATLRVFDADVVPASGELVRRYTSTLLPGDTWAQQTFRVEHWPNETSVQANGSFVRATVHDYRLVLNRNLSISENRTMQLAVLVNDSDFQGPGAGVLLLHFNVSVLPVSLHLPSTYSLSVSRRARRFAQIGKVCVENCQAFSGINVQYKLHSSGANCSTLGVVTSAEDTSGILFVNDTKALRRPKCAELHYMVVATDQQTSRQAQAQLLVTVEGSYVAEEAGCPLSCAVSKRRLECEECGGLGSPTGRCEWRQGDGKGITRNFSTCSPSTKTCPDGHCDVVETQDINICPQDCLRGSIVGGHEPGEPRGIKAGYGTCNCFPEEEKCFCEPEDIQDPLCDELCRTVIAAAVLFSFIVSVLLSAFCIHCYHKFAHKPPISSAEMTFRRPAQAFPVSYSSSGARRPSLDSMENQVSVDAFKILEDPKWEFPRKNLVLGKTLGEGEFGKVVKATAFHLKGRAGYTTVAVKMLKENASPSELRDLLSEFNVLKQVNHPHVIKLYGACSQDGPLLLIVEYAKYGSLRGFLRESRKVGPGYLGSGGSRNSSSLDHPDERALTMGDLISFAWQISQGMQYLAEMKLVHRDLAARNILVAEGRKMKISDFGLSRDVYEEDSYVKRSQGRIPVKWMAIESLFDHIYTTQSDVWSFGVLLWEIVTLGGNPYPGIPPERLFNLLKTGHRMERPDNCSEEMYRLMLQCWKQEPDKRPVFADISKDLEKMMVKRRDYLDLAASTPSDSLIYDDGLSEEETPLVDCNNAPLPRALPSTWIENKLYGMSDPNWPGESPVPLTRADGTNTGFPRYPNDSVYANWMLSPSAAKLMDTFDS
T1 sequence (P07949 29-1114): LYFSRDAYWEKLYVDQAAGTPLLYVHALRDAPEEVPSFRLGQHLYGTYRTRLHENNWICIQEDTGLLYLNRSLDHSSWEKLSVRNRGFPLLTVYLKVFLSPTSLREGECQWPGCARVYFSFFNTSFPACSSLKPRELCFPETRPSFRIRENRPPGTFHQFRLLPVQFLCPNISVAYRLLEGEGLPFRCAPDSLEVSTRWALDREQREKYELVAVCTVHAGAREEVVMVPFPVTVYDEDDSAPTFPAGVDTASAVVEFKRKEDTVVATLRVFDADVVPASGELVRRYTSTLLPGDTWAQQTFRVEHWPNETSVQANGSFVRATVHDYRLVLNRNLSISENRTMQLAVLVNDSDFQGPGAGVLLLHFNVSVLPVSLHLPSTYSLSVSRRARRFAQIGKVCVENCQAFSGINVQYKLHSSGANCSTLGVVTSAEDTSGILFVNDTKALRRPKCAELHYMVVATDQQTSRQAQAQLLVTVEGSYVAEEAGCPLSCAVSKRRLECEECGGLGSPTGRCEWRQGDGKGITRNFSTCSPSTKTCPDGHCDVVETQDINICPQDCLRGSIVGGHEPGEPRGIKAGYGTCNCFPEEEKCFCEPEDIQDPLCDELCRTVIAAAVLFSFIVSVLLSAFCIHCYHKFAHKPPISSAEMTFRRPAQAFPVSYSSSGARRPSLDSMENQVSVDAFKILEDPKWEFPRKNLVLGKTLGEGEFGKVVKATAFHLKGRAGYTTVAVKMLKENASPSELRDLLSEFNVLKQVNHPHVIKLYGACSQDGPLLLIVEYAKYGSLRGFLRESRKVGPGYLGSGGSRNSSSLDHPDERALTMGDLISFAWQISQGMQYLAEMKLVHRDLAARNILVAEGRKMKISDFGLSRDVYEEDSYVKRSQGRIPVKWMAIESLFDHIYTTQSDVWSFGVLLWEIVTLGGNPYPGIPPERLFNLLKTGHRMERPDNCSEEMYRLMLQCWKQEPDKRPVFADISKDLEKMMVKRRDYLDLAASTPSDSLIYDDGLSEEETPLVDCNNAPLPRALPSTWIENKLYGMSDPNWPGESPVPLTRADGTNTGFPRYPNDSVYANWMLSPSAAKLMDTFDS
T3 sequence (P07949 whole entry G810R, the tested form may be a part): as the sequence (P07949 whole entry, change not shown, the tested form may be a part) above, with G810R counted along it
T4 sequence (P35968 20-1356): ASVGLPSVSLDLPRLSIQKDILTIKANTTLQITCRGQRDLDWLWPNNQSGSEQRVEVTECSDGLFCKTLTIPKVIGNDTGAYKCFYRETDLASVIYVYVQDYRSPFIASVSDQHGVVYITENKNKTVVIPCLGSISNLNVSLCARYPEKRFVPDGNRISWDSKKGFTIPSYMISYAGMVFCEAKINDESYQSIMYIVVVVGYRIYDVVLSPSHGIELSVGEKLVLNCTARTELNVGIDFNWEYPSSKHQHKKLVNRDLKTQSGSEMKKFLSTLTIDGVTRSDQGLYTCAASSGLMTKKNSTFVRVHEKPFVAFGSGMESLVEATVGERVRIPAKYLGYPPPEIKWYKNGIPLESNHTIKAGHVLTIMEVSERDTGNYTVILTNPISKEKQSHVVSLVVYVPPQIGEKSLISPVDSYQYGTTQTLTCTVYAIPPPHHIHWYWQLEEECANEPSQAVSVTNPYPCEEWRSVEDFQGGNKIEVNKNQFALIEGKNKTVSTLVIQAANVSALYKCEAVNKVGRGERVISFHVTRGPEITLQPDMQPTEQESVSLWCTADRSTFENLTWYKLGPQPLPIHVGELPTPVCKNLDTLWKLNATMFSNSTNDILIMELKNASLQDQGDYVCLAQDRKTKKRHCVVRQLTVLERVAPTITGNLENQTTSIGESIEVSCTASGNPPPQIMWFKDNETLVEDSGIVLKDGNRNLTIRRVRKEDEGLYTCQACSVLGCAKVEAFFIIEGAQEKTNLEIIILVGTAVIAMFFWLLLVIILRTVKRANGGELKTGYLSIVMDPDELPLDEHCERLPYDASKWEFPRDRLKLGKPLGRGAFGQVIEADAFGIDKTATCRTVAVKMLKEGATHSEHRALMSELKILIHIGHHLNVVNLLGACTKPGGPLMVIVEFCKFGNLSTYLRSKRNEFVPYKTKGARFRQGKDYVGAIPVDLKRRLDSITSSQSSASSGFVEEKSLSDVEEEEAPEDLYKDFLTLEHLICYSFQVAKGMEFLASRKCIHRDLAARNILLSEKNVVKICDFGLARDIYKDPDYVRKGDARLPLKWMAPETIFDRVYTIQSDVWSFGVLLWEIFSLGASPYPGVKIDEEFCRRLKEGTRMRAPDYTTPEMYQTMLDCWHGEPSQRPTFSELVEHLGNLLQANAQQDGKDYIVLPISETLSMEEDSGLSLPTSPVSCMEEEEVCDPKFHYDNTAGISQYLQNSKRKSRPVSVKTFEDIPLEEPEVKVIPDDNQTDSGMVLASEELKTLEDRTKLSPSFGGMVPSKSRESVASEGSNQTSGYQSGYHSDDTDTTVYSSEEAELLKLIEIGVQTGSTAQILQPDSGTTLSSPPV
Sequence of BA/F3-KIF5B-RET M918T cells (P07949 whole entry M918T, form open): as the sequence (P07949 whole entry, change not shown, the tested form may be a part) above, with M918T counted along it
T2 sequence (P07949 whole entry V804M, the tested form may be a part): as the sequence (P07949 whole entry, change not shown, the tested form may be a part) above, with V804M counted along it

For `CC(C)(O)c1ccc(-c2cc(-c3cnc(N4C5CC6CC4CC(NC(=O)c4ncccc4Cl)(C6)C5)cn3)c3c(C#N)cnn3c2)nc1` [Example 18, 3-chloro-N-((1R,3S,5s,7s)-2-(5-(3-cyano-6-(5-(2-hydroxypropan-2-yl)pyridin-2-yl)pyrazolo[1,5-a]pyridin-4-yl)pyrazin-2-yl)-2-azaadamantan-5-yl)picolinamide], the GI50 [1] was 18.4 nM, the IC50 [2] was 1170 nM and the IC50 [3] was 1.4 nM. It also gave a GI50 [4] of 3.9 nM, a GI50 [5] of 59.4 nM and an IC50 [6] of 21 nM. For the same compound, the GI50 ([7]; Table 2, read-out: BA/F3-KIF5B-RET Cellular activity) was 0.7 nM and the GI50 ([7]; Table 3, read-out: BA/F3-KIF5B-RET) was 0.7 nM.
